Experiment in all cases: NCI-60 cell line screen, 48 h
In assay [1] the test system is HCC-2998 colon.
For assay [2], the system named is SK-MEL-2 melanoma.
For assay [3], the system named is HS 578T breast.
In assay [4] the test system is SNB-75 CNS.
Assay [5] deals with SW-620 colon.
For assay [6], the system named is 786-0 renal.
Assay [7] has as its system MDA-N.
In assay [8] the test system is HOP-62 NSCLC.
The subject of assay [9] is DU-145 prostate.
The subject of assay [10] is EKVX NSCLC.
In assay [11] the test system is A549 NSCLC.
Assay [12] deals with UACC-62 melanoma.
The subject of assay [13] is OVCAR-8 ovarian.
In assay [14] the test system is A498 renal.
Assay [15] relates to HCT-116 colon.
Assay [16] concerns CCRF-CEM leukemia.

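Protocol summary: plate cells (96-well), add compound at 5 concentrations, incubate 48 h, interpolate endpoints linearly. TGI: total growth inhibition.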 Where a SMILES comes first, the peptide text is derived from it. The star is where a group is joined. Boc = CC(C)(C)OC(=O)*

In the case of `CC(NC(=O)C1CCCN1C(=O)CNC(=O)OC(C)(C)C)C(=O)O` (stereo not drawn) (Boc-Gly-Pro-Ala-OH; configuration not given here), the TGI in assay [1], in assay [2], in assay [3], in assay [4], in assay [5] and in assay [6] was greater than 100 µM in each case. Besides, the TGI in assay [7], in [8], in assay [9], in assay [10], in assay [11] and in [12] was greater than 100 µM in each case. Further, the TGI in assay [13] was greater than 100 µM.

On to `O=c1oc2ccc3ccccc3c2cc1-c1nc(-c2ccc([N+](=O)[O-])cc2)n[nH]1`, for which the TGI is greater than 100 µM in [1]; greater than 100 µM in [2]; 45.6 µM in [3]; greater than 100 µM in [14]; greater than 100 µM in [15]; greater than 100 µM in assay [5]. Moreover, the TGI in assay [6] is greater than 100 µM; in assay [7], greater than 100 µM; in [8], 42 µM; in [16], greater than 100 µM; in assay [9], greater than 100 µM; in assay [10], greater than 100 µM. Besides, the TGI is greater than 100 µM in assay [11], greater than 100 µM in assay [12] and 94.6 µM in [13].

As to `COc1ccc(C(=O)N2CCN(c3ccc4c(c3)OCC(=O)N4)CC2)cc1OC`, the TGI in [1], in [2], in assay [3], in assay [15], in [4] and in assay [5] was greater than 100 µM in each case. Further, the TGI in [6], in assay [7], in assay [8], in assay [16], in assay [9] and in assay [10] was greater than 100 µM throughout. The TGI in assay [11], in assay [12] and in [13] was greater than 100 µM each time.

As for `OCC(O)C(O)C(O)C(O)CNCCO/N=C1/C(c2c(O)[nH]c3ccccc23)=Nc2ccccc21` (configuration not stated), the TGI in [1] was 28.7 µM; in [2] it was 15.7 µM; in assay [3] it was 44.4 µM; in [15], 38.2 µM; in assay [4], 24.5 µM; in assay [5] it was greater than 50 µM. Also, the TGI in assay [6] was greater than 50 µM; in assay [7], 19.4 µM; in assay [8], 22.9 µM; in assay [16], 30.2 µM; in [9], greater than 50 µM; in assay [10] it was greater than 50 µM. Besides, the TGI is greater than 50 µM in assay [11], 17.5 µM in [12] and greater than 50 µM in [13].

Consider `N#CC(NNC(=O)c1c(Cl)c(Cl)c(Cl)c(Cl)c1-c1nc2ccc(C(=O)c3ccccc3)cc2[nH]1)c1ccccc1` (configuration not stated), for which the TGI is 58.1 µM in [2]; greater than 100 µM in assay [3]; greater than 100 µM in [15]; 27.8 µM in [4]; greater than 100 µM in assay [5]; 42.9 µM in [6]. Also, the TGI in assay [7] is 6.78 µM; in assay [8], 63.7 µM; in assay [16], greater than 100 µM; in [9], greater than 100 µM; in [10] it was greater than 100 µM; in assay [11] it was greater than 100 µM. The compound further gave a TGI in [13] greater than 100 µM.

For the compound `N#CC(c1ccccc1)N(CCc1ccccc1)C(=O)c1ccc(C(=O)N(CCc2ccccc2)C(C#N)c2ccccc2)cc1` (configuration not stated), the TGI in [1] worked out at 29.1 µM; in assay [2], 48.1 µM; in assay [3], 39.1 µM; in [14] it was 75.3 µM; in assay [15] it was 28.4 µM; in [4], 45.8 µM. For the same compound, the TGI was 58.7 µM in [5]; 56.5 µM in assay [6]; 65.1 µM in assay [7]; 71.5 µM in assay [16]; greater than 100 µM in assay [9]; greater than 100 µM in assay [10]. Moreover, the TGI in assay [11] is greater than 100 µM; in assay [12], 35.6 µM; in [13] it was 34.6 µM.

As to `COc1ccc(-c2[nH]c(-c3ccc(OC)cc3)c(-c3ccccn3)c2-c2ccccn2)cc1`, the TGI is 46.3 µM in [1]; greater than 100 µM in [3]; greater than 100 µM in assay [14]; greater than 100 µM in [15]; greater than 100 µM in assay [4]; greater than 100 µM in assay [5]. Also, the TGI in assay [6], in assay [7], in [16], in assay [9], in assay [10] and in assay [11] was greater than 100 µM throughout. The TGI in assay [12] and in [13] was greater than 100 µM each time.

`CC1=NNC(=O)C1C1CC(c2c[nH]c3ccccc23)=NN(c2ccccc2)C1=O` (configuration not stated): the TGI in assay [2], in assay [3], in [14], in [15], in assay [4] and in assay [5] was greater than 100 µM in each case. In addition, the TGI in assay [6] is 57.7 µM; in assay [7], greater than 100 µM; in assay [8] it was greater than 100 µM; in [16], 72.6 µM; in assay [9], greater than 100 µM; in assay [10] it was greater than 100 µM. The TGI in assay [11], in assay [12] and in assay [13] was greater than 100 µM throughout.

For the compound `C/C(=N\Nc1nc2ccccc2o1)c1ncccn1`, the TGI is 20.7 µM in assay [1]; 13.6 µM in assay [2]; greater than 61 µM in assay [3]; 15.8 µM in assay [14]; 17 µM in [15]; 28.3 µM in [5]. Besides, the TGI in [6] was 12.1 µM; in [7] it was greater than 54.5 µM; in [8], 2.91 µM; in [16], 0.0584 µM; in assay [9], greater than 50.8 µM; in [10], 14.1 µM. The TGI in [11] was found to be 12.1 µM; in assay [12], 0.449 µM; in [13], 0.404 µM.

For the compound `Cc1ccc(N=NN(C)C(C)C(O)Cc2ccccc2)cc1` (configuration not stated), the TGI in assay [1], in assay [2], in [3], in assay [15], in assay [4] and in assay [5] was greater than 100 µM in each case. Also, the TGI in assay [6], in assay [7], in [8], in assay [16], in assay [9] and in assay [10] was greater than 100 µM throughout. For the same compound, the TGI in [11], in assay [12] and in assay [13] was greater than 100 µM in each case.

Regarding `Cc1nn(C(=O)c2ccc(Cl)cc2)c2c1C(c1ccccc1O)SC(N)=N2` (configuration not stated), the TGI in assay [1], in assay [2], in assay [3], in assay [15], in assay [4] and in [5] was greater than 10 µM throughout. Besides, the TGI in [6], in assay [7], in assay [8], in assay [16], in assay [9] and in [10] was greater than 10 µM throughout. The TGI in [11], in assay [12] and in [13] was greater than 10 µM throughout.

Consider `Clc1cc2nc(C3CCCCO3)[nH]c2cc1Cl` (configuration not stated), for which the TGI is 96.9 µM in [1]; greater than 100 µM in [2]; greater than 71.3 µM in assay [3]; greater than 100 µM in assay [15]; 58.4 µM in assay [4]; greater than 100 µM in [5]. Besides, the TGI is greater than 91.9 µM in assay [6]; 22.8 µM in assay [7]; greater than 100 µM in assay [8]; greater than 100 µM in [16]; greater than 100 µM in assay [9]; greater than 100 µM in assay [10]. Further, the TGI is greater than 100 µM in assay [11], greater than 100 µM in assay [12] and greater than 73 µM in assay [13].

In the case of `O=C1NC(=S)N/C1=C\c1ccc(Cl)cc1`, the TGI in [1], in assay [2], in [3], in assay [15], in [4] and in assay [5] was greater than 100 µM throughout. Also, the TGI in [6], in [7], in [8], in [16], in assay [9] and in assay [10] was greater than 100 µM throughout. The TGI in [11], in assay [12] and in [13] was greater than 100 µM in each case.

With `O=C1C(Cl)=C(N2CCN(CCOCCO)CC2)C(=O)c2ccccc21`, the TGI came to 32.1 µM in [1]; 23 µM in assay [2]; 39.2 µM in assay [3]; 33.4 µM in assay [14]; 11.1 µM in assay [15]; 27.7 µM in [4]. For the same compound, the TGI is 3.09 µM in assay [5]; 24 µM in assay [6]; 4.17 µM in [7]; 7.27 µM in assay [16]; 34 µM in [9]; 32.3 µM in assay [10]. The TGI in assay [11] is 34.2 µM; in [12], 13.7 µM; in assay [13], 28.2 µM.

On to `CC(=O)Nc1ncc2c(n1)-c1ccccc1OC2c1ccccc1` (configuration not stated), for which the TGI in [2] was greater than 100 µM; in assay [3] it was 55.4 µM; in [14], 51.6 µM; in assay [15], greater than 100 µM; in [4], 40.5 µM; in assay [5] it was greater than 100 µM. For the same compound, the TGI in [6] is 38.2 µM; in [7], greater than 100 µM; in assay [16], greater than 100 µM; in [9], greater than 100 µM; in [10], greater than 100 µM; in [11] it was greater than 100 µM. Further, the TGI in [12] is 36.4 µM; in assay [13] it was 66.2 µM.

In the case of `CCC(=O)N(c1ccccc1)C(C)CN1CCC(O)(c2cccc(C(F)(F)F)c2)CC1` (configuration not stated), the TGI in [1] was 57.3 µM; in [2], 43 µM; in assay [3], 99.7 µM; in assay [14] it was 66.3 µM; in [15] it was 31.1 µM; in [4], 76.3 µM. Moreover, the TGI in [5] was greater than 100 µM; in assay [6], 40.1 µM; in [7] it was 39.2 µM; in [8], 42.3 µM; in assay [16], 50.1 µM; in [10] it was greater than 100 µM. The TGI in assay [11] is greater than 100 µM; in [12], 49.1 µM; in assay [13] it was greater than 100 µM.

As for `O=C(NC(=O)c1ccccc1)OC(c1ccccc1)C1CO1` (configuration not stated), the TGI in assay [1], in assay [2], in assay [3], in assay [15], in assay [4] and in assay [5] was greater than 100 µM each time. The TGI in [6], in assay [7], in assay [8], in assay [16], in assay [9] and in assay [10] was greater than 100 µM in each case. The TGI in assay [11], in [12] and in [13] was greater than 100 µM in each case.

In the case of `Cc1n[nH]c(=O)n1Nc1ccccc1`, the TGI in assay [1], in [3], in assay [15], in assay [4], in [5] and in assay [6] was greater than 100 µM in each case. Also, the TGI in [7], in assay [8], in assay [16], in assay [9], in [10] and in [11] was greater than 100 µM throughout. Further, the TGI in assay [12] and in assay [13] was greater than 100 µM in each case.

`O=C(O)CCNc1ncc2c(n1)-c1ccccc1OC2`: the TGI in assay [2], in assay [3], in [15], in [4], in assay [5] and in assay [6] was greater than 100 µM each time. Besides, the TGI in assay [7], in assay [8], in assay [16], in assay [9], in [10] and in assay [11] was greater than 100 µM throughout. The TGI in assay [12] and in assay [13] was greater than 100 µM each time.
